The subject of assay [1] is adenosine uptake in HEK293 cells. Briefly: Adenosine uptake inhibitory activity in HEK293 cells ([3H]adenosine uptake). The class given is cell-based. The following applies: Homo sapiens, 1 min, [3H]adenosine uptake relative to 100% of control, HEK293 cells; for activity at 0.05 µM: 50 nmol/L compound, n=2; for activity at 0.5 µM: 500 nmol/L compound. The protocol:
A test was conducted according to the method of Leung et al. [Biochemical Pharmacology, Vol. 70, pp. 355-362 (2005)]. HEK293 cells (ATCC, Registration No. CRL-1537) were subcultured in a Dulbecco's modified Eagle's medium (manufactured by Invitrogen Corporation) containing 10% of fatal calf serum in a CO2 incubator using a poly-L-lysine-coated 10-cm dish (manufactured by Asahi Techno Glass Corporation). The cultured cells were seeded in a poly-L-lysine-coated 24-well plate (manufactured by Asahi Techno Glass Corporation) and cultured until the cells become confluent. […] After incubation at room temperature for 15 minutes, 0.2 mL of a Na^+-free buffer containing 100 nmol/L of [^3H] adenosine (manufactured by GE Health Care Bioscience Corporation) and each compound at each of 50 nmol/L and 500 nmol/L was added to each well. After 1 minute, the reaction solution was removed with an aspirator, and the wells were washed twice with 0.5 mL of ice-cooled PBS (phosphate-buffered saline). Then, 0.5 mL of PBS containing 5% Triton X-100 was added to each well, and the cells were scraped with a scraper. The solution in each well was homogenized by passing through a 20 G injection needle ten times and transferred to a scintillation vial containing 4 mL of clear sol (manufactured by Nacalai Tesque Inc.). Further, the wells were washed with 0.5 mL of PBS containing 5% Triton X-100, and the washing solution was added to the same vial. After sufficient agitation, radioactivity was measured using a liquid scintillation counter (Aloka Co., Ltd., LSC-3500). A relative value to 100% of an uptake of a control was indicated by percentage.

The test system of assay [2] is restraint stress-induced defecation. The assay can be described thus: Action on restraint stress-induced defecation. The class given is in vivo, male Wistar rats. The settings on record: 10 mg/kg p.o. 1 hour before restraint stress; measured 1 hour after stress initiation; rats, n=10; control of each sub-table 1.06-1.71 g. The protocol: An experiment was carried out according to the method of Kishibayashi et al. [Japanese Journal of Pharmacology, Vol. 69, No. 4, pp. 495-502 (1993)]. In the experiment, male Wistar rats aged 6 to 7 weeks (supplied from Charles River Laboratories Japan, Inc.) were used. […] The rats were lightly anesthetized with diethyl ether, and the thoracic trunk and the forelimbs were wrapped with a tape to produce mild stress. One hour after stress initiation, the wet weight of fecal pellets was measured. Each drug solution was orally administered 1 hour before restraint stress. A test compound was suspended at a concentration of 2 mg/mL in an aqueous solution of 0.5 w/v % methyl cellulose 400 cP and orally administered at a volume of 5 mL/kg (at a dose of 10 mg/kg). In a control, an aqueous solution of 0.5 w/v % methyl cellulose 400 cP was administered. Ten rats were used in each group. […] YM060, a serotonin 5-HT3 receptor antagonist [The Journal of Pharmacology and Experimental Therapeutics, Vol. 259, No. 2, pp. 815-819 (1991), Astellas Pharma. Inc., online, internet (URL: […].com/jp/companry/news/2006/pdf/060131.pdf)], which is being applied as a therapeutic agent for irritable bowel syndrome, was administered at a dose of 0.1 mg/kg.

The structures appear in SMILES notation.

In assay [1], `Cc1cc(C(=O)Nc2cccc3c2C(=O)c2sccc2CS3(=O)=O)[nH]n1` [Compound 1-9, 5,5-Dioxo-9-[(5-methylpyrazol-3-ylcarbonyl)amino]-4,10-dihydrothieno[3,2-c][1]benzothiepin-10-one] came in with an activity at 0.05 µM of 62% and an activity at 0.5 µM of 26%. Further, the “Wet weight of fecal pellets” value in assay [2] is reported as 0.39 ± 0.18 g.

In assay [1], `CCOC(=O)Nc1cccc2c1C(=O)c1sccc1CS2(=O)=O` [Compound 1-6] showed an activity at 0.05 µM of 89% and an activity at 0.5 µM of 68%. Also, the “Wet weight of fecal pellets” value in assay [2] was determined as 0.31 ± 0.06 g.

In assay [1], `O=C(Nc1cccc2c1C(=O)c1sccc1CS2(=O)=O)c1cc(Cl)ccc1O` [Compound 1-7] had an activity at 0.05 µM of 74% and an activity at 0.5 µM of 35%. The “Wet weight of fecal pellets” value in assay [2] was 0.59 ± 0.12 g.

The values are drawn from patent US20100267796A1, “THERAPEUTIC AGENT FOR IRRITABLE BOWEL SYNDROME” (KYOWA HAKKO KOGYO CO., LTD., priority 2006, published 2010).
